Data published in patent publication US8647845B2, “Method for producing sugar” (Asahi Group Holdings, Ltd., priority 2008, dated 2014).

Biological target: T1, sucrase (Saccharomyces cerevisiae, UniProt P00724)
T1 construct: S. cervisiae (Taiken 396 strain) which is a general yeast having sucrase; endogenous in cells; host or cells: Saccharomyces cerevisiae Taiken 396 strain (live yeast in sugarcane-pressed juice)
T1 sequence (P00724 20-532): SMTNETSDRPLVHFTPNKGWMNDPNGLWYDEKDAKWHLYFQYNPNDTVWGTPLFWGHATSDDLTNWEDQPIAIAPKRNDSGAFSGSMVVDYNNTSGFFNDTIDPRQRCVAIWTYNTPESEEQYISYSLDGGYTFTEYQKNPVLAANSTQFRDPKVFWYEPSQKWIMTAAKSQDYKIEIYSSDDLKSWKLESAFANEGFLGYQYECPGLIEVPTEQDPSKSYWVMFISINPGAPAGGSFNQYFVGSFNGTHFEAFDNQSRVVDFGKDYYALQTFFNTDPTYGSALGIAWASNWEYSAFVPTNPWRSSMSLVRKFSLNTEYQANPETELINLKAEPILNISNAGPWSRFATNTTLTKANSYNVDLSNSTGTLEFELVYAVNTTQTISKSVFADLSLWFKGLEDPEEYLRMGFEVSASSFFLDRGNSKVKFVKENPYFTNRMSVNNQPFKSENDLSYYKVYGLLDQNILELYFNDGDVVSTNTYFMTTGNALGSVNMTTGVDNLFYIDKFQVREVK
Assay: Fermentation test on sugarcane-pressed juice using sucrase inhibitor
Assay type: cell-based, S. cervisiae (Taiken 396 strain)
Conditions: 60 mM inhibitor
Method: S. cervisiae ([…] 396 strain) which is a general yeast having sucrase was planted in a sugarcane-pressed juice. Methyl-α-D-glucopyranoside serving as a sucrase inhibitor was added thereto at a concentration 60 mM. A fermentation test was conducted to examine the changes in the concentrations of sucrose, invert sugars, and ethanol over time. The fungal strain used for fermentation had been pre-precultured by shaking in 10 mL of a YM medium at 30° C. for 24 hours, and then further precultured by shaking in 500 mL of a YPD medium at 30° C. for 12 hours. The yeast was collected from the precultured medium by centrifugation. 100 mL of the pressed juice (in the pressed juice, the sucrose concentration was 10.0%, and the invert sugar concentration was 3.0%) and 60 mM of methyl-α-D-glucopyranoside were placed in a 300-mL Erlenmeyer flask with a fermentation lock. The yeast collected from the precultured medium by centrifugation was added into the flask for fermentation. The fermentation was carried out by shaking at 30° C. at 120 rpm.

[1] = 6 hours after the fermentation was started

- sucrose ratio of the fermented liquid (8 hours after the fermentation was started): 94.0%
- sucrose decomposition speed (sugarcane-pressed juice (sucrose 10.0%, invert sugar 3.0%), 30° C., compared with no inhibitor): made slow
Compound: CO[C@H]1O[C@H](CO)[C@@H](O)[C@H](O)[C@H]1O [methyl-α-D-glucopyranoside]
- invert sugars converted into ethanol [1]: all the invert sugars were converted into ethanol
- sucrose remaining [1]: approximately half of the sucrose remained
